Reference: patent US20140228349A1, “5,7-SUBSTITUTED-IMIDAZO[1,2-C]PYRIMIDINES” (Array BioPharma Inc., priority 2011, published 2014)

Key:
Format in all cases: biochemical
JAK3 = target: T1, JAK3 (Homo sapiens, UniProt P52333); assay: JAK3 Inhibition Assay (Omnia kinase fluorescence peptide substrate); details: averaged IC50 ranges; 10 μM (Km app) or 1 mM ATP, 2.5 nM JAK3
T1 construct: purchased Invitrogen Corporation, Carlsbad, Calif; IVGN PV4080
T1 sequence (P52333 1-1124): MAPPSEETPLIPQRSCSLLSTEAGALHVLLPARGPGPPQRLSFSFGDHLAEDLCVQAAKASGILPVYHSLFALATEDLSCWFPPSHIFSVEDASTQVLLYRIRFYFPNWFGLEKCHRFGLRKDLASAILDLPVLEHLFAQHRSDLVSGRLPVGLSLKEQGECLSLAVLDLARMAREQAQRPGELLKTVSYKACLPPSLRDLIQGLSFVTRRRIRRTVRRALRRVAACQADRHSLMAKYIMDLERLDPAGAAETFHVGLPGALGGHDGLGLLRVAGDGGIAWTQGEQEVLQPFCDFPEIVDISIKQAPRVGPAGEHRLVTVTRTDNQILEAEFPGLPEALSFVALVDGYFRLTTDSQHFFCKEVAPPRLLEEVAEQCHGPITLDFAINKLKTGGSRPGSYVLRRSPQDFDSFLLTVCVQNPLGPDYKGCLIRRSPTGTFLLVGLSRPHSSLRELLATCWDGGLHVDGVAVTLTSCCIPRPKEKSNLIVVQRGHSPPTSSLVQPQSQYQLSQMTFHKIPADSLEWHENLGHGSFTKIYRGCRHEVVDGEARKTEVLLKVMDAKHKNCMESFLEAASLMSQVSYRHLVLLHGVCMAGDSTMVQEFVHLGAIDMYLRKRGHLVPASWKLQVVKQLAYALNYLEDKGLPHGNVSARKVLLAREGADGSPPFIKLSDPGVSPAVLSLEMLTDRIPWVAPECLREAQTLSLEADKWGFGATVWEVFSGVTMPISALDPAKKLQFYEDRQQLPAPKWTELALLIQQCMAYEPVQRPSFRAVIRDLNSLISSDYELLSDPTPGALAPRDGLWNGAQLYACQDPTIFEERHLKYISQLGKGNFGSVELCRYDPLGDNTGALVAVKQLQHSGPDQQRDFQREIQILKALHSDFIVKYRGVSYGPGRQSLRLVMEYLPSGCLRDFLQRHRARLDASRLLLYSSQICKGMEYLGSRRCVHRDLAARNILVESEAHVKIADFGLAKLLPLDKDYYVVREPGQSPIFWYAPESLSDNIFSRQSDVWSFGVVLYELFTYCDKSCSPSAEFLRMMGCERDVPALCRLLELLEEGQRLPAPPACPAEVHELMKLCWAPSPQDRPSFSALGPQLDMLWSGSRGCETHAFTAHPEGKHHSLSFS
Description: (§1) The assays described in Examples A, B, C and D for the determination of Tyk2, JAK1, JAK2 and JAK3 kinase activity, respectively, utilized the Omnia® Kinase fluorescence peptide substrate-based technology (Invitrogen). The specific components of the assay mixture are described in Examples A, B, C and D. In these assays, Mg^2+ is chelated upon phosphorylation of the Omnia peptide by the kinase to form a bridge between the chelation-enhanced fluorophore Sox and the phosphate, resulting in an increase in fluorescence emission at 485 nm when excited at […]. The reactions were therefore read at excitation 360 nm and emission was measured at 485 nm every 50 seconds for 45 minutes using a PerkinElmer EnVision Multilabel Plate Reader.
(§2) The final buffer conditions for Tyk2, JAK1, JAK2, and JAK3 assays were as follows: 25 mM HEPES, pH 7.4, 10 mM MgCl2, 0.01% Triton X-100 and 1 mM DTT.
(§3) Compounds were prepared at 50× the final concentration in DMSO by conducting 3-fold serial dilutions from a 500-μM intermediate dilution to give a 10-point dosing curve having a high dose of 10 μM. Two-μL aliquots of these were transferred to a fresh plate for a ten-fold intermediate dilution with assay buffer. Five-μL aliquots of the diluted compounds were then transferred to 20-μL of assay mixtures described in Examples A, B, C and D for a final concentration of DMSO of 2%. A standard or reference compound was typically included on each assay plate to validate that plate. For each plate, percent of control (POC) values were calculated for each well according to the following equation: […]
(§4) IC50's were estimated from the POC's using a standard 4-parameter logistic model:
(§5) The IC50 is defined as the concentration of inhibitor at which the POC equals 50 for the fitted curve.
(§6) Compounds of Formula I were screened for their ability to inhibit JAK3 using the general enzyme inhibition assay method, in which the assay mixture contained 10 μM (Km app) or 1 mM ATP, 10 μM Omnia® Y7 peptide (Catalog #IVGN KNZ3071C, Invitrogen Corporation, Carlsbad, Calif.) and 2.5 nM JAK3 in a total volume of 20 μL. JAK3 was purchased from Invitrogen Corporation, Carlsbad, Calif. (catalog #IVGN PV4080).

Human Tyk2 kinase domain = target: T2, Human Tyk2 kinase domain (Homo sapiens, UniProt P29597); assay: Tyk2 Inhibition Assay (Omnia kinase fluorescence peptide substrate); details: averaged IC50 ranges; 10 μM (Km app) or 1 mM ATP, 2 nM Tyk2
T2 construct: comprising amino acids 886 to 1187; His10 (10 histidine residues) (C, cleaved yes); made in house
T2 sequence (P29597 886-1187): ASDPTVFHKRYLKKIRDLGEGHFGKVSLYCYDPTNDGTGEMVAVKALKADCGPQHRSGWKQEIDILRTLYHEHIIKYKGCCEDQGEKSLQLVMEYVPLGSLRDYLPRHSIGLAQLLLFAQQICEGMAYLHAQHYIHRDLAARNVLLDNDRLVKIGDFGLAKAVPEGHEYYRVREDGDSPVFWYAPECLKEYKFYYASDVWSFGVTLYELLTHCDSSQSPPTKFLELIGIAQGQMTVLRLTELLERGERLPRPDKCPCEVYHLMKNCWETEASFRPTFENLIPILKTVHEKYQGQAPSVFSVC
Description: as §1, §2, §3, §4, §5
Compounds of Formula I were screened for their ability to inhibit Tyk2 using the general enzyme inhibition assay method, in which the assay mixture contained 10 μM (Km app) or 1 mM ATP, 8 μM Omnia® Y12 peptide (Catalog #IVGN KPZ3121C; Invitrogen Corporation, Carlsbad, Calif.) and 2 nM Tyk2 in a total volume of 20 μL. Human Tyk2 kinase domain, comprising amino acids 886 to 1187 with 10 additional histidine residues (histidine tag) on the carboxy terminus, was expressed and purified from bacculovirus in-house at Array BioPharma Inc. (Boulder, Colo.). The histidine tag was cleaved after purification using standard conditions.

JAK2 = target: T3, JAK2 (Homo sapiens, UniProt O60674); assay: JAK2 Inhibition Assay (Omnia kinase fluorescence peptide substrate); details: averaged IC50 ranges; 25 μM (Km app) or 1 mM ATP, 5 nM JAK2
T3 construct: purchased Invitrogen Corporation, Carlsbad, Calif; IVGN PV4288
Description: as §1, §2, §3, §4, §5
as §6, with “inhibit JAK2” for “inhibit JAK3”, “contained 25” for “contained 10”, “and 5” for “and 2.5”, “nM JAK2” for “nM JAK3”, “μL. JAK2” for “μL. JAK3”, “#IVGN PV4288).” for “#IVGN PV4080).”

JAK1 = target: T4, JAK1 (Homo sapiens, UniProt P23458); assay: JAK1 Inhibition Assay (Omnia kinase fluorescence peptide substrate); details: averaged IC50 ranges; 40 μM (Km app) or 1 mM ATP, 15 nM JAK1
T4 construct: purchased Invitrogen Corporation, Carlsbad, Calif; IVGN PV4775
Description: as §1, §2, §3, §4, §5
Compounds of Formula I were screened for their ability to inhibit JAK1 using the general enzyme inhibition assay method, in which the assay mixture contained 40 μM (Km app) or 1 mM ATP, 8 μM Omnia® Y12 peptide (Catalog #IVGN KPZ3121C; Invitrogen Corporation, Carlsbad, Calif.) and 15 nM JAK1 in a total volume of 20 μL. JAK1 was purchased from Invitrogen Corporation, Carlsbad, Calif. (catalog #IVGN PV4775).

T4 sequence (P23458 whole entry): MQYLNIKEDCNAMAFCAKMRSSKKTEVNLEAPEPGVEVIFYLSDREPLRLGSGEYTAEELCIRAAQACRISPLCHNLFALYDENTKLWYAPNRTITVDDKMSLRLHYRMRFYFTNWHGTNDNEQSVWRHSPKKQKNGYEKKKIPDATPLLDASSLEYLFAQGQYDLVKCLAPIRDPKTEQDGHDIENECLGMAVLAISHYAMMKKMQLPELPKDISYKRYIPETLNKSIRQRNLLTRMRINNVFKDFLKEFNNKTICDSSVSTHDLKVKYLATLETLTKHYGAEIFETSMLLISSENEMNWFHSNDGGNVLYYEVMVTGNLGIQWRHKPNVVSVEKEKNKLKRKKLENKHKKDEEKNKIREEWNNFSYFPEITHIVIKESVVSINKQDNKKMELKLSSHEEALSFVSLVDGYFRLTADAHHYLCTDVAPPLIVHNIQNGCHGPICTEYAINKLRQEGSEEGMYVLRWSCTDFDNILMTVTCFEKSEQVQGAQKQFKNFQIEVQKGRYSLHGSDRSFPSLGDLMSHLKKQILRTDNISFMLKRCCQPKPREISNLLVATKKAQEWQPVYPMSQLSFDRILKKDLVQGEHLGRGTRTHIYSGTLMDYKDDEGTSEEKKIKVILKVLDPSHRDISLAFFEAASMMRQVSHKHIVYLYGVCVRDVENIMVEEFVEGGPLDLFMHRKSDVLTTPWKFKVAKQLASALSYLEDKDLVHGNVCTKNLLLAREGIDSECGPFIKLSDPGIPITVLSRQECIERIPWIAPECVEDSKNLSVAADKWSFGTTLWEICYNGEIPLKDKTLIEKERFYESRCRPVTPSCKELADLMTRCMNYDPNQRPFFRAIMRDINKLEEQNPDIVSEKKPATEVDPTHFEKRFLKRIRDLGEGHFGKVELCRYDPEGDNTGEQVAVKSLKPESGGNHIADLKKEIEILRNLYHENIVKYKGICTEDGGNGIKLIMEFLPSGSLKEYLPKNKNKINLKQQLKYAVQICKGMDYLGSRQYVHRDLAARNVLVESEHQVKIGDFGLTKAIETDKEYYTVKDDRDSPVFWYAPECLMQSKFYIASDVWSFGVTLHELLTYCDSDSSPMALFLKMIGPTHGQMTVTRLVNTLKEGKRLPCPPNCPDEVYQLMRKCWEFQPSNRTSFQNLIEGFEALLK
T3 sequence (O60674 whole entry): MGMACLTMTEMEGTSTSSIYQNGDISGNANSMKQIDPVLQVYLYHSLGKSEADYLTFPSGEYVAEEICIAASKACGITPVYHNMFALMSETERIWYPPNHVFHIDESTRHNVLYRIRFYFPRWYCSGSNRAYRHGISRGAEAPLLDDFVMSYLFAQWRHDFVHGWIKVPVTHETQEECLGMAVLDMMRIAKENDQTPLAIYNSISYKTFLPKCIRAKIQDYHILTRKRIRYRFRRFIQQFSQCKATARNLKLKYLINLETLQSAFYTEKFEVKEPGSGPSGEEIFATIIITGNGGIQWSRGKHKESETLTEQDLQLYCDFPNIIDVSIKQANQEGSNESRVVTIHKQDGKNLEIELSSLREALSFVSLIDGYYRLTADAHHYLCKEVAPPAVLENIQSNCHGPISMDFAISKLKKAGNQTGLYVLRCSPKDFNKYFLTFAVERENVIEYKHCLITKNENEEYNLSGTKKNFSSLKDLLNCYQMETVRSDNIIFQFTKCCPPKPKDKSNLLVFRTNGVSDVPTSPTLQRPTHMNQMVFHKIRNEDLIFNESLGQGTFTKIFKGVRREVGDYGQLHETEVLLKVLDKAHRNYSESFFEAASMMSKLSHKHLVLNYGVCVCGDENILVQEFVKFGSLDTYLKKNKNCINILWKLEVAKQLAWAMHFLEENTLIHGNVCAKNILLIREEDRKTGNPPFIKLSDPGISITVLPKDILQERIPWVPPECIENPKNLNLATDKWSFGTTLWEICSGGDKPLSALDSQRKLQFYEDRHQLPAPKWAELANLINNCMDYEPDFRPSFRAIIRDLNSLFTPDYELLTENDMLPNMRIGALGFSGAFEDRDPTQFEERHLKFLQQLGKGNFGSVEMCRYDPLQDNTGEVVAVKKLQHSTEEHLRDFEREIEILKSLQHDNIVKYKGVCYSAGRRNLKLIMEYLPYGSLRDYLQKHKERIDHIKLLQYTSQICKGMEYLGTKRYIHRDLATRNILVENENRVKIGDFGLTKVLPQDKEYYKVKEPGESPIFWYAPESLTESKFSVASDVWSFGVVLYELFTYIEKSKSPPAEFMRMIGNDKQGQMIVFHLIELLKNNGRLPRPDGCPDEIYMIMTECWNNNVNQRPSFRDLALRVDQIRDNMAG

Row | Structure (SMILES) | IC50 (JAK3) [nM] | IC50 (Human Tyk2 kinase domain) [nM] | IC50 (JAK2) [nM] | IC50 (JAK1) [nM]
1 | Cn1cc(-c2cc3nccn3c(-c3cnn(C(CCO)C4CC4)c3)n2)cn1 (stereo not drawn) [Example 13, 3-cyclopropyl-3-(4-(7-(1-methyl-1H-pyrazol-4-yl)imidazo[1,2-c]pyrimidin-5-yl)-1H-pyrazol-1-yl)propan-1-ol] | > 1000 | 100 to 1000 | 100 to 1000 | > 1000
2 | CC(C1CC1)n1cc(-c2nc(-c3cnn(C)c3)cc3nccn23)cn1 (stereo not drawn) [Example 14, 5-(1-(1-Cyclopropylethyl)-1H-pyrazol-4-yl)-7-(1-methyl-1H-pyrazol-4-yl)imidazo[1,2-c]pyrimidine] | > 1000 | 10 to 100 | 100 to 1000 | > 1000
3 | Cn1cc(-c2cc3nccn3c(-c3cnn(C4(C)CN(S(=O)(=O)C(F)(F)F)C4)c3)n2)cn1 [Example 16, 5-(1-(3-Methyl-1-(trifluoromethylsulfonyl)azetidin-3-yl)-1H-pyrazol-4-yl)-7-(1-methyl-1H-pyrazol-4-yl)imidazo[1,2-c]pyrimidine] | > 1000 | 10 to 100 | 100 to 1000 | 100 to 1000
4 | Cn1cc(-c2cc3nccn3c(-c3cnn(C4(CCF)CN(CC(F)(F)F)C4)c3)n2)cn1 [Example 19, 5-(1-(3-(2-Fluoroethyl)-1-(2,2,2-trifluoroethyl)azetidin-3-yl)-1H-pyrazol-4-yl)-7-(1-methyl-1H-pyrazol-4-yl)imidazo[1,2-c]pyrimidine] | > 1000 | 10 to 100 | 100 to 1000 | > 1000
5 | Cn1cc(-c2cc3nccn3c(-c3ccn(C4(CCF)CN(CC#N)C4)c3)n2)cn1 [Example 22, 2-(3-(2-fluoroethyl)-3-(3-(7-(1-methyl-1H-pyrazol-4-yl)imidazo[1,2-c]pyrimidin-5-yl)-1H-pyrrol-1-yl)azetidin-1-yl)acetonitrile] | 100 to 1000 | 10 to 100 | 100 to 1000 | 100 to 1000
6 | Cn1cc(-c2cc3nccn3c(-c3ccn([C@@H](CCF)[C@@H]4CC4(F)F)c3)n2)cn1 [Example 24, 5-(1-((S)-1-((S)-2,2-difluorocyclopropyl)-3-fluoropropyl)-1H-pyrrol-3-yl)-7-(1-methyl-1H-pyrazol-4-yl)imidazo[1,2-c]pyrimidine] | 100 to 1000 | < 10 | 10 to 100 | 10 to 100

The remaining lines, values ahead:

Row | IC50 (JAK3) [nM] | IC50 (Human Tyk2 kinase domain) [nM] | IC50 (JAK2) [nM] | IC50 (JAK1) [nM] | Structure (SMILES)
7 | 100 to 1000 | 10 to 100 | 10 to 100 | 100 to 1000 | CCCC(C1CC1)n1cc(-c2nc(-c3cnn(C)c3)cc3nccn23)cn1 (stereo not drawn) [Example 15, 5-(1-(1-Cyclopropylbutyl)-1H-pyrazol-4-yl)-7-(1-methyl-1H-pyrazol-4-yl)imidazo[1,2-c]pyrimidine]
8 | 100 to 1000 | < 10 | 10 to 100 | 100 to 1000 | Cn1cc(-c2cc3nccn3c(-c3cnn(C(CCF)C4CC4)c3)n2)cn1 (stereo not drawn) [Example 17, 5-(1-(1-Cyclopropyl-3-fluoropropyl)-1H-pyrazol-4-yl)-7-(1-methyl-1H-pyrazol-4-yl)imidazo[1,2-c]pyrimidine]
9 | 100 to 1000 | < 10 | 10 to 100 | 100 to 1000 | Cn1cc(-c2cc3nccn3c(-c3cnn(C4(CCF)CN(S(=O)(=O)C(F)(F)F)C4)c3)n2)cn1 [Example 18, 5-(1-(3-(2-Fluoroethyl)-1-(trifluoromethylsulfonyl)azetidin-3-yl)-1H-pyrazol-4-yl)-7-(1-methyl-1H-pyrazol-4-yl)imidazo[1,2-c]pyrimidine]
10 | 100 to 1000 | 10 to 100 | 10 to 100 | 100 to 1000 | CCC1(n2cc(-c3nc(-c4cnn(C)c4)cc4nccn34)cn2)CN(S(=O)(=O)C(F)(F)F)C1 [Example 20, 5-(1-(3-ethyl-1-(trifluoromethylsulfonyl)azetidin-3-yl)-1H-pyrazol-4-yl)-7-(1-methyl-1H-pyrazol-4-yl)imidazo[1,2-c]pyrimidine]
11 | 100 to 1000 | 10 to 100 | 10 to 100 | 100 to 1000 | CSCCn1cc(-c2nc(-c3cnn(C)c3)cc3nccn23)cn1 [Example 21, 7-(1-methyl-1H-pyrazol-4-yl)-5-(1-(2-(methylthio)ethyl)-1H-pyrazol-4-yl)imidazo[1,2-c]pyrimidine]
12 | 10 to 100 | < 10 | 10 to 100 | 10 to 100 | Cn1cc(-c2cc3nccn3c(-c3ccn([C@H](CCF)[C@H]4CC4(F)F)c3)n2)cn1 [Example 23, 5-(1-((R)-1-((R)-2,2-difluorocyclopropyl)-3-fluoropropyl)-1H-pyrrol-3-yl)-7-(1-methyl-1H-pyrazol-4-yl)imidazo[1,2-c]pyrimidine]
